Results as given in US10993923B2, “Method for ameliorating fibrosis using 1-[4-chloro-3-(trifluoromethyl)phenyl]-3-[3-(4-cyanophenoxy)phenyl]urea” (priority 2016, dated 2021).

What was measured:
[1] = system: TGF-β, PDGFR and STAT3 pathways in LX2 cells; experiment: Western blot of signalling proteins in LX2 cells; type: cell-based, human; details: FIG. 16D, 16E
Description: Rat immortal hepatic stellate cell line HSC-T6 and LX2 human hepatic stellate cell line were provided by Professor Scott Friedman of Mount Sinai Hospital in New York, USA. The primary mouse HSCs were obtained via the way: after intubating the hepatic portal vein of the mouse, the cells were perfused with […] and ethylene glycol bis-aminoethyl ether tetraacetic acid (EGTA) buffer in situ, and then collagenase was injected to digest the liver tissue, and then the primary mouse HSCs were isolated by Histodnz gradient. HSC-T6 cells were cultured in Waymouth medium; LX2 cells and primary mouse HSCs were cultured in Dulbecco's Modified Eagle Medium (DMEM) containing 10% fetal bovine serum (FBS), 100 μg/mL penicillin, 100 μg/mL streptomycin, and 2 mM L-glutamine HSC-T6 cells, LX2 cells and primary mouse HSCs were cultured in a humidified incubator containing 5% carbon dioxide at 37° C. After adding the FBS, the resting HSC is started. […] Whole-cell extracts were obtained via RIPA buffer (Millipore, USA) and protein concentrations were quantified via a BCA protein assay kit (Thermo Fisher Scientific, USA). 20 or 25 μg of protein was added to various percentages of SDS-sodium dodecyl sulfate-acrylamide gel and blotted onto a polyvinylidene fluoride (PVDF) membrane. […] Proteins were detected by Immobilon Western Chemiluminescent HRP substrate (Millipore, USA) or ECL detection system (UVP Corporation, USA). […] Plasmids encoding the human wild-type SHP-1 and SHP-1 mutant, in which the N-SH2 domain was […] was changed into an […]) were cloned into the pCMV6-entry vector with myc-tag. These mutants were confirmed through DNA sequencing. […] (Chicago, Ill., USA).

LX2 cells = experiment: Apoptosis (Annexin V / propidium iodide flow cytometry), LX2 cells; type: cell-based, human; details: LX2; FIG. 16D, 16E
Description: Rat immortal hepatic stellate cell line HSC-T6 and LX2 human hepatic stellate cell line were provided by Professor Scott Friedman of Mount Sinai Hospital in New York, USA. The primary mouse HSCs were obtained via the way: after intubating the hepatic portal vein of the mouse, the cells were perfused with […] and ethylene glycol bis-aminoethyl ether tetraacetic acid (EGTA) buffer in situ, and then collagenase was injected to digest the liver tissue, and then the primary mouse HSCs were isolated by Histodnz gradient. HSC-T6 cells were cultured in Waymouth medium; LX2 cells and primary mouse HSCs were cultured in Dulbecco's Modified Eagle Medium (DMEM) containing 10% fetal bovine serum (FBS), 100 μg/mL penicillin, 100 μg/mL streptomycin, and 2 mM L-glutamine HSC-T6 cells, LX2 cells and primary mouse HSCs were cultured in a humidified incubator containing 5% carbon dioxide at 37° C. After adding the FBS, the resting HSC is started. […] The experiment was carried out following the manufacturer's instructions, and each group was triple repetition. […] The proportion of apoptotic cells was mixed the early (Annexin V+/PI-) and the late (Annexin V+/PI+) apoptotic cells measured by BD FACS Verse flow cytometry (BD, USA). Plasmids encoding the human wild-type SHP-1 and SHP-1 mutant, in which the N-SH2 domain was […] was changed into an […]) were cloned into the pCMV6-entry vector with myc-tag. These mutants were confirmed through DNA sequencing. […] (Chicago, Ill., USA).

SHP-1 [2] = biological target: T1, SHP-1 (Homo sapiens, UniProt P29350); experiment: SHP-1 phosphatase activity, LX2 cells; type: cell-based; details: LX2; sorafenib 5 μM, compound 2.5 or 5 μM; FIG. 16C
T1 construct: LX2 cell protein extract were reacted with anti-SHP-1 antibody in immunoprecipitation buffer overnight; endogenous in cells; host or cells: LX2 cells
T1 sequence (P29350 whole entry): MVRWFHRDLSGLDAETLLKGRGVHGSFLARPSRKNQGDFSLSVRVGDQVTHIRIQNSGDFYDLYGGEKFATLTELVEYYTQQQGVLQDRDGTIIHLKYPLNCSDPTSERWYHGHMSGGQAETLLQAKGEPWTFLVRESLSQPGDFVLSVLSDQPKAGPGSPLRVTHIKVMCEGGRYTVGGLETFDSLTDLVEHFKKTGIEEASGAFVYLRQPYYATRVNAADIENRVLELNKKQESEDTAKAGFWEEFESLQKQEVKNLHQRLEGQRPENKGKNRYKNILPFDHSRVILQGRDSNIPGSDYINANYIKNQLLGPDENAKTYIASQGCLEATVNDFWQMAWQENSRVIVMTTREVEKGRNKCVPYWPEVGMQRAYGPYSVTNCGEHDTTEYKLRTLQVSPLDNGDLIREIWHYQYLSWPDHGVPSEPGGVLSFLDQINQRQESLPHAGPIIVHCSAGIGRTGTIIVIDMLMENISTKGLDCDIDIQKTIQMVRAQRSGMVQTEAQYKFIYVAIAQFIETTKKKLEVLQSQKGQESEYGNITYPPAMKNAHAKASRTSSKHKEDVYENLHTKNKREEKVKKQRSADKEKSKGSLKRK
Description: After drug treatment, mouse fibroblasts (NIH3T3 cell line), human lung epithelial cells (A549 cell line) or LX2 cell protein extract were reacted with anti-SHP-1 antibody in immunoprecipitation buffer overnight. Protein A/G Sepharose Fast Flow Beads (GE) were added to each sample, followed by a rotation reaction at 4° C. for 3 hours. The 96EnzChek® tyrosine phosphatase assay kit (R-22067) was used for SHP-1 activity assay (Invitrogen, USA).
Plasmids encoding the human wild-type SHP-1 and SHP-1 mutant, in which the N—SH2 domain was truncated (dN1) or one aspartic acid at site 61 was changed into an alanine residue (D61A) were cloned into the pCMV6-entry vector with myc-tag. These mutants were confirmed through DNA sequencing. Smart-pool siRNA, including the control (D-001810-10), and SHP-1 (PTPN6, L-009778-00-0005) were obtained from Dharmacon Inc. (Chicago, Ill., USA). For transient expression, SHP-1 plasmids or siRNA (final concentration, 100 nM) with the Lipofectamine 2000 transfection reagent were pretransfected into the LX2 cells for 24 h, following the manufacturer's instructions.

SHP-1 [3] = biological target: T2, SHP-1 (Rattus norvegicus, UniProt P81718); experiment: SHP-1 phosphatase activity, HSC-T6 cells; type: cell-based; details: sorafenib 5 μM, compound 2.5 or 5 μM, FIG. 16C
T2 construct: endogenous in cells; host or cells: HSC-T6 cells
T2 sequence (P81718 whole entry): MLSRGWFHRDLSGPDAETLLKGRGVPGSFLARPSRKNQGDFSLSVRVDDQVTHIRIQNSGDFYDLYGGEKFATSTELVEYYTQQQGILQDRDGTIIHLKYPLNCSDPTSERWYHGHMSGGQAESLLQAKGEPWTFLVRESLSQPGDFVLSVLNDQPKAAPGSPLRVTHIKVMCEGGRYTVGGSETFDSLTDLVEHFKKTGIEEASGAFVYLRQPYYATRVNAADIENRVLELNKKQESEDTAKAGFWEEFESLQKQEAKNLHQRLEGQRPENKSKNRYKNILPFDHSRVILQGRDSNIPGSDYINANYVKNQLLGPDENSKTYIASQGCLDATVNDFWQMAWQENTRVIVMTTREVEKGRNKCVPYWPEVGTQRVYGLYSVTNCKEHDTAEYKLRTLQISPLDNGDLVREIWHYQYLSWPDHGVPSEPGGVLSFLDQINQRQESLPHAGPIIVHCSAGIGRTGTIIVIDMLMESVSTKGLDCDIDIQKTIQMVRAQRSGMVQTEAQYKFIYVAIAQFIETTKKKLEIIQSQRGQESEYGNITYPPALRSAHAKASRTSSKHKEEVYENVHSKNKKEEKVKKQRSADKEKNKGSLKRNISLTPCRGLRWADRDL

[4] = system: CCl4-induced hepatic fibrosis in mice; experiment: CCl4-induced hepatic fibrosis mice prevention model; type: in vivo, male C57BL/6J mice; details: concurrently administered with CCl4 for 4 weeks; FIG. 11A-11E
Description: (§1) In male C57BL/6J mice, liver fibrosis was induced by carbon tetrachloride (CCl4). The mice were given peritoneal injection of carbon tetrachloride for 4 or 8 weeks every two weeks.
(§2) The mice liver samples were stored in 10% formaldehyde, dehydrated with gradient alcohol, embedded in paraffin blocks, sectioned to a thickness of 3 μm, placed on glass slides, and stained with Picrosirius Red Stain kit (ScyTek, USA), following the manufacturer's instructions. The severity of liver fibrosis was graded according to the Ishak fibrosis score. Quantitative collagen-positive area (qCPA) was determined by densitometry via ImageJ software. Hepatic hydroxyproline concentrations were measured by the hydroxyproline assay kit (Biovision, USA), following the manufacturer's instructions Immunohistochemistry was performed by the Leica BOND-MAX automatic chromatograph (Leica Biosystems, Germany), following the manufacturer's instructions.

[5] = system: CCl4-induced hepatic fibrosis in mice; experiment: CCl4-induced hepatic fibrosis mice treatment model; type: in vivo, male C57BL/6J mice; details: compound 5, 10, or 20 mg/kg or sorafenib 10 mg/kg, with CCl4 for 6 weeks after 2 weeks CCl4 induction; FIG. 12A
Description: as §1, §2
Continuous variables are presented as mean (standard error), and categorical data are presented as number (percentage), as appropriate. Differences between subgroups were evaluated using the Student t test. Spearman's correlation was used for the association between SHP-1 and serum alanine aminotransferase (ALT). The mouse survival rate was estimated using the Kaplan-Meier method. The log-rank test was used to determine the statistical differences in survival of the different experimental groups. Statistical analysis was performed using STATA (version 13, Stata Corp, College Station, Tex., USA). All tests were two-sided, and P<0.05 was considered significant.

| Compound | p-STAT3 in compound-treated LX2 cells in the presence of a phosphatase inhibitor [1] | compound-induced apoptosis of LX2 cells in the presence of a phosphatase inhibitor (LX2 cells) | SHP-1 activity (SHP-1 [2]) | SHP-1 activity (SHP-1 [3]) | hepatic fibrosis (Picrosirius Red staining, qCPA, Ishak fibrosis score, α-SMA expression, hydroxyproline concentration) [4] | hepatic fibrosis (picrosirius red staining) [5] |
| --- | --- | --- | --- | --- | --- | --- |
| Sodium vanadate [reference compound] | upregulation | rescued |  |  |  |  |
| O=C(O)COc1ccc(C(=O)CBr)cc1 [PTP inhibitor III, reference compound] | upregulated | rescued |  |  |  |  |
| CNC(=O)c1cc(Oc2ccc(NC(=O)Nc3ccc(Cl)c(C(F)(F)F)c3)cc2)ccn1 [sorafenib, reference compound] |  |  | increases the activity of SHP-1 | increases the activity of SHP-1 | significant fibrosis regression | significantly improved hepatic fibrosis |
